{"source": "paper PMC5384750", "about": "(PLoS ONE, 2017)", "key": {"[1]": {"molecular_target": "T1, insulin-degrading enzyme (IDE) (Homo sapiens, UniProt P14735)", "T1 construct": "endogenous in cells; host or cells: HeLa cells (cytosolic S10 extract)", "test": "Inhibition of / competition with sp6 or sp6BY degradation in S10 extract", "assay_type": "biochemical", "details": "30 min, 37°C; for stabilization of sp6BY by known IDE-inhibitors: 10 ng sp6BY, 5 μg S10 extract, increasing concentrations, fluorescence, at least three independent experiments (S2 Fig); for stabilization of sp6 by protease inhibitor (initial screen): 100 ng sp6, 5 μg S10 extract, Western blot, 1.3 mM EDTA, 130 μM Bestatin, 600 nM Phosphoramidon", "method": "(§1) For generation of S10, confluent dishes with HeLa cells were extensively washed and subsequently lysed with a modified S10 buffer (250 mM sucrose, 80 mM KCl, 10 mM Tris pH 7.6, 0.1% (v/v) Triton X-100 [91]). Debris and nuclei were removed by centrifugation at 10.000 × g for 10 min. Protein content was determined by BCA-Assay (Pierce) and aliquots stored at -80°C.\n(§2) Reactions were stopped by addition of sample buffer and incubation at 95°C for 5 min. Remaining p6 was detected by Western blotting using an anti-p6 rabbit antiserum. Alternatively, 10 ng of BODIPY FL-labeled sp6 (sp6BY) were used as substrate and detected directly in the polyacrylamide gel by fluorescence scanning. In some experiments the amount of p6 was densitometrically quantified with the software AIDA (Raytest). For the in vitro degradation of amyloid-β 10 ng of Aβ-FITC (abcam) were used analogously to sp6BY. For the in vitro degradation of viral p6, VLPs were pelleted and lysed in IDE enzyme buffer (150 mM NaCl, 50 mM Tris pH 7.4, 0.5% (v/v) Triton X-100). The p6 content was estimated by Western blotting using a dilution series of sp6 with known concentrations. Equivalents of 15 ng were used for digestion experiments and subsequently detected by Western blotting. Experiments carried out with recombinant IDE (Calbiochem) were performed in IDE enzyme buffer.\nBestatin, Chymostatin, E-64, Leupeptin, Pepstatin, Phosphoramidon, Pefabloc SC, EDTA, Aprotinin, Antipain were purchased from Roche as part of a protease inhibitors set and used at the following concentrations: 74 μM Antipain; 130 μM Bestatin; 100 μM Chymostatin; 28 μM E-64; 1 μM Leupeptin; 1 μM Pepstatin; 600 nM Phosphoramidon; 4 mM Pefabloc SC; 1.3 mM EDTA; […]. […] (Phoenix Pharmaceuticals and Tocris), TPEN (Calbiochem), and NEM (Roche) were purchased from companies indicated."}, "[2]": {"test": "In vitro degradation in cytosolic S10 HeLa cell extract", "assay_type": "in vitro ADME", "details": "10 ng sp6BY E0A or vp6 S40F, S14N, K27/33R; 5 μg S10 extract, 37°C; fluorescence or Western blot; three independent experiments (S1B Fig)", "method": "as §1\nas §2, with “Typically 5 μg S10 were incubated with inhibitor or buffer and 20–100 ng sp6 at 37°C for 30 min. Reactions” for “Reactions”, “buffer. Recombinant FITC-labeled insulin was purchased from Sigma.” for “buffer.”"}, "recombinant IDE (rIDE)": {"molecular_target": "T2, recombinant IDE (rIDE) (Rattus norvegicus, UniProt P35559)", "T2 construct": "purchased Calbiochem", "test": "Inhibition of rIDE-mediated degradation of sp6BY", "assay_type": "biochemical", "details": "10 ng rIDE, 10 ng sp6BY, 30 min, 37°C; TPEN 1 mM, NEM 1 mM, insulin 100 μg/ml", "method": "Fig 6 IDE is sufficient and required for the in vitro degradation of sp6 and vp6. (A) 10 ng sp6BY were incubated with 5 μg S10 extract from HeLa cells, either untransfected or transfected with control or IDE-specific siRNA, for 0, 10, 30 or 90 min at 37°C. (B) sp6BY was detected by fluorescence emission and quantified. (C) VLP lysates from HEK293T cells were incubated with S10 from siRNA treated cells described in A. Viral proteins were detected as described in Fig 1. (D) Western blot analyses of the S10 extract used in A and C. The membrane was stained with antibodies specific for IDE, HSP70, and β-actin. […] (F) VLP lysates were incubated with 10 ng rIDE for 30 min.\nas §2, with “Typically 5 μg S10 were incubated with inhibitor or buffer and 20–100 ng sp6 at 37°C for 30 min. Reactions” for “Reactions”, “buffer. Recombinant FITC-labeled insulin was purchased from Sigma.” for “buffer.”"}, "[3]": {"test": "cytosolic S10 HeLa cell extract (S10)", "details": "37°C, up to 60 min"}, "purified mammalian IDE": {"system": "purified mammalian IDE", "details": "cited from earlier work"}}, "data": [{"compound": "Nc1ncnc2c1ncn2[C@@H]1O[C@H](COP(=O)(O)OP(=O)(O)OP(=O)(O)O)[C@@H](O)[C@H]1O", "note": "[ATP]", "values": [{"measurement": "stabilization of sp6BY by known IDE-inhibitors", "setting": "[1]", "result": "prevented the degradation of p6"}]}, {"compound": "CC(C)C[C@H](NC(=O)[C@@H](O)[C@H](N)Cc1ccccc1)C(=O)O", "note": "[Bestatin]", "values": [{"measurement": "stabilization of sp6 by protease inhibitor (initial screen)", "setting": "[1]", "result": "did not stabilize p6"}]}, {"compound": "O=C(O)CN(CCN(CC(=O)O)CC(=O)O)CC(=O)O", "note": "[EDTA]", "values": [{"measurement": "stabilization of sp6 by protease inhibitor (initial screen)", "setting": "[1]", "result": "could stabilize sp6"}]}, {"compound": "CC[C@H](C)[C@H](NC(=O)[C@@H]1CCCN1C(=O)[C@H](CCC(=O)O)NC(=O)[C@H](CCC(N)=O)NC(=O)[C@H](CCCNC(=N)N)NC(=O)[C@H](CCC(N)=O)NC(=O)[C@H](CO)NC(=O)[C@@H]1CCCN1C(=O)[C@@H](NC(=O)[C@@H](NC(=O)[C@@H](NC(=O)[C@H](CCC(=O)O)NC(=O)[C@H](CCC(=O)O)NC(=O)CNC(=O)[C@H](Cc1ccccc1)NC(=O)[C@H](CCCNC(=N)N)NC(=O)[C@H](Cc1ccccc1)NC(=O)[C@H](CO)NC(=O)[C@H](CCC(=O)O)NC(=O)[C@H](CCC(=O)O)NC(=O)[C@@H]1CCCN1C(=O)[C@@H]1CCCN1C(=O)[C@H](C)NC(=O)[C@@H](NC(=O)[C@@H]1CCCN1C(=O)[C@H](CCC(=O)O)NC(=O)[C@@H]1CCCN1C(=O)[C@H](CCCNC(=N)N)NC(=O)[C@H](CO)NC(=O)[C@H](CCC(N)=O)NC(=O)[C@@H](N)CC(C)C)[C@@H](C)O)[C@@H](C)O)[C@@H](C)O)[C@@H](C)O)C(=O)N[C@@H](CC(=O)O)C(=O)N[C@@H](CCCNC(=N)N)C(=O)N[C@@H](CCC(=O)O)C(=O)N[C@@H](CC(C)C)C(=O)N[C@@H](Cc1ccc(O)cc1)C(=O)N1CCC[C@H]1C(=O)N[C@@H](CC(C)C)C(=O)N[C@@H](C)C(=O)N[C@@H](CO)C(=O)N[C@@H](CC(C)C)C(=O)N[C@@H](CCCNC(=N)N)C(=O)N[C@@H](CO)C(=O)N[C@@H](CC(C)C)C(=O)N[C@@H](Cc1ccccc1)C(=O)NCC(=O)N[C@@H](CO)C(=O)N[C@@H](CC(=O)O)C(=O)N1CCC[C@H]1C(=O)N[C@@H](CO)C(=O)N[C@@H](CO)C(=O)N[C@@H](CCC(N)=O)C(=O)O", "note": "[K27/33R]", "values": [{"measurement": "degradation efficiency of HIV-1NL4-3 p6 mutants in S10 extract", "setting": "[2]", "result": "wt degradation efficiency"}]}, {"compound": "CCN1C(=O)C=CC1=O", "note": "[NEM, N-ethylmaleimide]", "values": [{"measurement": "stabilization of sp6 in the presence of rIDE", "setting": "recombinant IDE (rIDE)", "result": "stabilized sp6"}, {"measurement": "stabilization of sp6BY by known IDE-inhibitors", "setting": "[1]", "result": "prevented the degradation of p6"}]}, {"compound": "CC(C)C[C@H](NP(=O)(O)O[C@@H]1O[C@@H](C)[C@H](O)[C@@H](O)[C@H]1O)C(=O)N[C@@H](Cc1c[nH]c2ccccc12)C(=O)O", "note": "[Phosphoramidon]", "values": [{"measurement": "stabilization of sp6 by protease inhibitor (initial screen)", "setting": "[1]", "result": "failed to stabilize p6"}]}, {"compound": "CC[C@H](C)[C@H](NC(=O)[C@@H]1CCCN1C(=O)[C@H](CCC(=O)O)NC(=O)[C@H](CCC(N)=O)NC(=O)[C@H](CCCCN)NC(=O)[C@H](CCC(N)=O)NC(=O)[C@H](CO)NC(=O)[C@@H]1CCCN1C(=O)[C@@H](NC(=O)[C@@H](NC(=O)[C@@H](NC(=O)[C@H](CCC(=O)O)NC(=O)[C@H](CCC(=O)O)NC(=O)CNC(=O)[C@H](Cc1ccccc1)NC(=O)[C@H](CCCNC(=N)N)NC(=O)[C@H](Cc1ccccc1)NC(=O)[C@H](CC(N)=O)NC(=O)[C@H](CCC(=O)O)NC(=O)[C@H](CCC(=O)O)NC(=O)[C@@H]1CCCN1C(=O)[C@@H]1CCCN1C(=O)[C@H](C)NC(=O)[C@@H](NC(=O)[C@@H]1CCCN1C(=O)[C@H](CCC(=O)O)NC(=O)[C@@H]1CCCN1C(=O)[C@H](CCCNC(=N)N)NC(=O)[C@H](CO)NC(=O)[C@H](CCC(N)=O)NC(=O)[C@@H](N)CC(C)C)[C@@H](C)O)[C@@H](C)O)[C@@H](C)O)[C@@H](C)O)C(=O)N[C@@H](CC(=O)O)C(=O)N[C@@H](CCCCN)C(=O)N[C@@H](CCC(=O)O)C(=O)N[C@@H](CC(C)C)C(=O)N[C@@H](Cc1ccc(O)cc1)C(=O)N1CCC[C@H]1C(=O)N[C@@H](CC(C)C)C(=O)N[C@@H](C)C(=O)N[C@@H](CO)C(=O)N[C@@H](CC(C)C)C(=O)N[C@@H](CCCNC(=N)N)C(=O)N[C@@H](CO)C(=O)N[C@@H](CC(C)C)C(=O)N[C@@H](Cc1ccccc1)C(=O)NCC(=O)N[C@@H](CO)C(=O)N[C@@H](CC(=O)O)C(=O)N1CCC[C@H]1C(=O)N[C@@H](CO)C(=O)N[C@@H](CO)C(=O)N[C@@H](CCC(N)=O)C(=O)O", "note": "[S14N]", "values": [{"measurement": "degradation efficiency of HIV-1NL4-3 p6 mutants in S10 extract", "setting": "[2]", "result": "wt degradation efficiency"}]}, {"compound": "CC[C@H](C)[C@H](NC(=O)[C@@H]1CCCN1C(=O)[C@H](CCC(=O)O)NC(=O)[C@H](CCC(N)=O)NC(=O)[C@H](CCCCN)NC(=O)[C@H](CCC(N)=O)NC(=O)[C@H](CO)NC(=O)[C@@H]1CCCN1C(=O)[C@@H](NC(=O)[C@@H](NC(=O)[C@@H](NC(=O)[C@H](CCC(=O)O)NC(=O)[C@H](CCC(=O)O)NC(=O)CNC(=O)[C@H](Cc1ccccc1)NC(=O)[C@H](CCCNC(=N)N)NC(=O)[C@H](Cc1ccccc1)NC(=O)[C@H](CO)NC(=O)[C@H](CCC(=O)O)NC(=O)[C@H](CCC(=O)O)NC(=O)[C@@H]1CCCN1C(=O)[C@@H]1CCCN1C(=O)[C@H](C)NC(=O)[C@@H](NC(=O)[C@@H]1CCCN1C(=O)[C@H](CCC(=O)O)NC(=O)[C@@H]1CCCN1C(=O)[C@H](CCCNC(=N)N)NC(=O)[C@H](CO)NC(=O)[C@H](CCC(N)=O)NC(=O)[C@@H](N)CC(C)C)[C@@H](C)O)[C@@H](C)O)[C@@H](C)O)[C@@H](C)O)C(=O)N[C@@H](CC(=O)O)C(=O)N[C@@H](CCCCN)C(=O)N[C@@H](CCC(=O)O)C(=O)N[C@@H](CC(C)C)C(=O)N[C@@H](Cc1ccc(O)cc1)C(=O)N1CCC[C@H]1C(=O)N[C@@H](CC(C)C)C(=O)N[C@@H](C)C(=O)N[C@@H](Cc1ccccc1)C(=O)N[C@@H](CC(C)C)C(=O)N[C@@H](CCCNC(=N)N)C(=O)N[C@@H](CO)C(=O)N[C@@H](CC(C)C)C(=O)N[C@@H](Cc1ccccc1)C(=O)NCC(=O)N[C@@H](CO)C(=O)N[C@@H](CC(=O)O)C(=O)N1CCC[C@H]1C(=O)N[C@@H](CO)C(=O)N[C@@H](CO)C(=O)N[C@@H](CCC(N)=O)C(=O)O", "note": "[S40F]", "values": [{"measurement": "degradation efficiency of HIV-1NL4-3 p6 mutants in S10 extract", "setting": "[2]", "result": "wt degradation efficiency"}]}, {"compound": "c1ccc(CN(CCN(Cc2ccccn2)Cc2ccccn2)Cc2ccccn2)nc1", "note": "[TPEN]", "values": [{"measurement": "stabilization of sp6 in the presence of rIDE", "setting": "recombinant IDE (rIDE)", "result": "stabilized sp6"}]}, {"compound": "Bacitracin", "values": [{"measurement": "stabilization of sp6BY by known IDE-inhibitors", "setting": "[1]", "result": "prevented the degradation of p6"}]}, {"compound": "PIQQKSQHNKSVVQETPQTQNLYPDLSEIKKEYNVKEKDQVEDLNLDSLWE", "values": [{"measurement": "not cleaved", "setting": "[3]", "result": "no degradation observed (up to 60 min)"}]}, {"compound": "PMAQVHQGLMPTAPPEDPAVDLLKNYMQLGKQQREKQRESREKPYKEVTEDLLHLNSLFGGDQ", "values": [{"measurement": "not cleaved", "setting": "[3]", "result": "no degradation observed (up to 60 min)"}]}, {"compound": "PVAQVPQGLTPTAPPVDPAVDLLEKYMQQGKRQREQRERPYKEVTEDLLHLEQGETPYREPPTEDLLHLNSLFGKDQ", "values": [{"measurement": "not cleaved", "setting": "[3]", "result": "no degradation observed (up to 60 min)"}]}, {"compound": "amyloid-β [Aβ]", "values": [{"measurement": "kcat", "setting": "purified mammalian IDE; purified mammalian IDE", "result": 0.875, "unit": "s⁻¹"}, {"measurement": "Km", "setting": "purified mammalian IDE; rounded value", "result": 1.2, "unit": "µM"}]}]}
